Test results from patent US5654282A, “Selectin binding glycopeptides” (Glycomed Incorporated, priority 1995, dated 1997).

What was measured:
P-selectin [1] = test: ELISA assay, selectin-IgG chimera binding to 2,3 sLex glycolipid (P-selectin); details: FIG. 5; tested at several concentrations; results expressed as percent of control binding; values only in the figure
Experimental: (§1) An ELISA assay (Foxall et al, The Journal of Cell Biology (1992) 117:895) is preferably used which consists of the following three steps:
(§2) 1. 2,3 sLex glycolipid is transferred into microtitre wells as solutions and then evaporated off. Excess, which remained unattached, is washed off with water. The wells are then blocked with a blocking agent, preferably BSA.
(§3) 2. Preparation of "multivalent" receptor of the Selectin-IgG chimera is carried out by combining the respective chimera with biotin labelled goat F(ab')2 anti-human IgG (Fc specific) and streptavidin-alkaline phosphatase diluted appropriately and incubated. This allows the soluble multivalent receptor complex to form.
(§4) 3. Potential inhibitors such as glyco-amino acids or glycopeptides of structural formula I are allowed to react with the soluble receptor. This solution is then placed in the microtitre wells that are prepared in step 1. The plate is incubated to allow the soluble receptor to bind to its natural ligand. In the presence of a strong inhibitor only a few of the receptors should be free to bind to the microtitre plate coated with the natural ligand.
(§5) The positive control is the signal produced by the soluble receptor when it is allowed to react with the natural ligand in the microtitre wells in the absence of any inhibitor. This is considered 100% binding. The signal produced by the receptor that is previously treated with an inhibitor (recorded as O.D.), is divided by the signal produced by the positive control and multiplied by 100 to calculate the % receptor bound to the well in the presence of the inhibitor. The reciprocal of this is the % inhibition.
(§6) The glyco-amino acids or glycopeptides of structural formula I can be tested for their ability to bind to a selectin receptor and/or block the binding site of the receptor and thereby prevent a natural ligand from binding to the selectin receptor (Foxall et al, The Journal of Cell Biology (1992) 117:895). A generalized procedure for testing the ligands is given below.
(§7) An ELISA assay is preferably used which consisted of the following three steps:
1. 2,3 sLex glycolipid (25 picomol/well) was transferred into microtitre wells as solutions and evaporated off. Excess, which remained unattached, was washed off with water. […]
as §5, with “was” for “is”, “This is considered 100% binding.” left out, “The reciprocal of this is the % inhibition.” left out

L-selectin [2] = test: ELISA assay, selectin-IgG chimera binding to 2,3 sLex glycolipid (L-selectin); details: FIG. 4; tested at several concentrations; results expressed as percent of control binding; values only in the figure
Experimental: as §1, §2, §3, §4, §5, §6, §7
1. 2,3 sLex glycolipid (25 picomol/well) was transferred into microtitre wells as solutions and evaporated off. Excess, which remained unattached, was washed off with water. The wells were blocked with 5% BSA at room temperature for an hour and washed with PBS containing 1 mM calcium.
2. Preparation of "multivalent" receptor of the Selectin-IgG chimera was carried out by combining the respective chimera (1 μg/mL) with biotin labelled goat F(ab')2 anti-human IgG (Fc specific) and streptavidin-alkaline phosphatase diluted 1:1000 in 1% BSA-PBS (1 mM calcium) and incubating at 37° C. for 15 min. This allowed the soluble multivalent receptor complex to form.
3. Potential inhibitors such as glyco-amino acids or glycopeptides of structural formula I were allowed to react with the soluble receptor at 37° C. for 45 min. This test assumes that optimal binding, between the soluble phase receptor complex and the inhibitor (non-natural ligand), would occur within this time frame. This solution was placed in the microtitre wells that were prepared in step 1. The plate was incubated at 37° C. for 45 minutes to allow the soluble receptor to bind to its natural ligand. In the presence of a strong inhibitor only a few receptors would be free to bind to the microtitre plate coated with the natural ligand.
as §5, with “control was” for “control is”, “it was” for “it is”, “This was” for “This is”, “that was” for “that is”, “O.D.), was” for “O.D.), is”

L-selectin [3] = test: Stamper-Woodruff assay (lymphocyte adhesion to HEV of lymph node frozen sections); type: cell-based, Swiss Webster mice; Sprague-Dawley rats; details: FIG. 7; lymphocyte binding to HEV, percent of relative binding; values only in the figure
From the text: (§8) Lymphocytes are known to circulate from blood to lymphoid tissues via high endothelial venules (HEV) on lymph nodes. L-selectin is expressed on the surface of lymphocytes and is believed to mediate lymphocyte adhesion by binding to the natural ligand on the HEV. The glyco-amino acids or glycopeptides of structural formula I can be tested for their ability to bind to a selectin receptor and/or block the binding site of the receptor and thereby prevent a natural ligand from binding to the selectin receptor. See, for example, Stoolman et al, The Journal of Cell Biology (1983) 96:722. The Stamper-Woodruff assay is well known in the art, and generally consists of the following three steps:
1. Preparation of the lymphocytes:
(a) The lymphocytes are obtained from the mesenteric nodes of female Swiss Webster mice, by gently teasing tissues with phosphate buffered saline (PBS). The cells are obtained by gently squeezing the cells from the tissues. The cells are dispersed and the cell clumps are removed. The single cell suspension is suspended, washed, and kept on ice until use (less than two hours). Cells are counted and prepared at an appropriate concentration.
(b) The superficial and deep cervical lymph nodes of female Sprague-Dawley rats are dissected and prepared in the same way as the mice.
2. Preparation of frozen sections:
Superficial or deep cervical lymph nodes are dissected from the animals, snap frozen, and immediately placed in a cryostat for sectioning. 10-μm sections are prepared and transferred onto glass slides, and air dried.
3. Potential inhibitors are added to lymphocyte suspensions 10-30 minutes before the start of the binding assay, and unless otherwise stated, are present throughout the subsequent binding incubation.
The frozen sections are used in the order in which they are cut. Aliquots of untreated lymphocytes (positive control), suspensions containing fucoidin (negative control) and suspensions containing potential inhibitors are layered on the sections in an arbitrary sequence such that the control and each test substance are represented once in a series.
The binding of the lymphocytes to the HEV is easily distinguishable from binding elsewhere by virtue of the characteristic picture of tightly packed, darkly stained lymphocytes overlaying the histologically distinctive HEV. The number of adherent lymphocytes on each HEV are counted and the average number of adherent cells per HEV (cells bound per HEV) is calculated. The results are expressed as a percent of relative binding, wherein the positive control is considered to be 100% binding.
as §8, with “were” for “can be”
(a) The lymphocytes were obtained from the mesenteric nodes of female Swiss Webster mice (23-27 g), by gently teasing tissues by phosphate buffered saline (PBS). […] Cells were counted and prepared at 3-4×10^7 cells/ml. […]

P-selectin [4] = test: P-Selectin/HL-60 assay; type: cell-based; details: FIG. 6; HL-60 cells; tested at several concentrations; values only in the figure
From the text: The glyco-amino acids or glycopeptides of structural formula I can be tested for their ability to inhibit P-selectin binding to its native ligand. A generalized procedure for testing the ligands is given below. A P-selectin/HL-60 assay is preferably used which consists of the following steps:
1. HL-60 cells are harvested and pelleted by centrifugation. The cells are washed, counted and the volume adjusted appropriately.
2. PVC microtiter plate is blocked with a blocking agent, and washed with TBS-BSA.
3. P-selectin is diluted appropriately in BSA-TBS Ca containing goat F(ab')2 anti-human IgG (Fc spec) and streptavidin-alkaline phosphatase. Positive controls have DMF added to equal the highest concentration of DMF in the sample compounds.
4. Ligands are incubated at room temperature with brisk rotation. […]
Para-nitrophenylphosphonate is added to the plate. […] Aliqouts from each well is transferred to a polystyrene microtiter plate and O.D. read at 405 nm. […] The signal produced by the receptor that is previously treated with an inhibitor (recorded as O.D.), is divided by the signal produced by the positive control and multiplied by 100 to calculate the % receptor bound to the well in the presence of the inhibitor. […]
1. […] The cells were washed three times with TBS without Ca, counted and the volume adjusted to 1.9×10^6 /ml in 1% BSA-TBS Ca just prior to use. […]

| Compound | inhibition of the binding of sLe^x to P-selectin (P-selectin [1]) | inhibition of the binding of sLe^x to L-selectin (L-selectin [2]) | inhibitory effects in the Stamper-Woodruff assay (cell adhesion) (L-selectin [3]) | inhibition of the binding of sLe^x to P-selectin in the HL-60 assay (P-selectin [4]) |
| --- | --- | --- | --- | --- |
| C[C@@H]1O[C@@H](CC(=O)N[C@@H](CCCCNC(=O)OC(C)(C)C)C(=O)O)[C@@H](O)[C@H](O)[C@@H]1O [#3, N-ω-t-butoxylcarbonyl-N-α-[(1-deoxy-α-L-fucopyranosyl)acetyl]-L-lysine] | inhibit the binding of sLe^x to P-selectin | inhibit the binding of sLe^x to L-selectin | inhibitory effects |  |
| CC1OC(CCCC(=O)NC(Cc2ccccc2)C(=O)O)C(O)C(O)C1O [#6, N-[4-(1-deoxy-α-L-fucopyranosyl)n-butanoyl]-L-phenylalanine] |  | inhibit the binding of sLe^x to L-selectin |  |  |
| C[C@@H]1O[C@@H](CC(=O)N2CCC[C@H]2C(=O)N[C@H](C(=O)O)c2ccccc2)[C@@H](O)[C@H](O)[C@@H]1O [#5, N-[(1-deoxy-α-L-fucopyranosyl)acetyl]-L-proline-L-phenylglycine] | inhibit the binding of sLe^x to P-selectin | inhibit the binding of sLe^x to L-selectin | inhibitory effects |  |
| C[C@@H]1O[C@@H](CC(=O)N2CCC[C@H]2C(=O)N[C@@H](Cc2ccccc2)C(=O)O)[C@@H](O)[C@H](O)[C@@H]1O [#1, N-[(1-deoxy-α-L-fucopyranosyl)acetyl]-L-proline-L-phenylalanine] | inhibit the binding of sLe^x to P-selectin | inhibit the binding of sLe^x to L-selectin | inhibitory effects | inhibit the binding of sLe^x to P-selectin |
| C[C@H](NC(=O)C[C@@H]1O[C@@H](C)[C@@H](O)[C@@H](O)[C@@H]1O)C(=O)N1CCC[C@H]1C(=O)N[C@@H](Cc1ccccc1)C(=O)O [#2, N-[(1-deoxy-α-L-fucopyranosyl)acetyl]-L-alanine-L-proline-L-phenylalanine] |  | inhibit the binding of sLe^x to L-selectin | inhibitory effects | inhibit the binding of sLe^x to P-selectin |
| C[C@@H]1O[C@@H](CCCC(=O)N2CCC[C@H]2C(=O)N[C@@H](Cc2ccccc2)C(=O)O)[C@@H](O)[C@H](O)[C@@H]1O [#4, N-[4-(1-deoxy-α-L-fucopyranosyl)n-butanoyl]-L-proline-L-phenylalanine] | inhibit the binding of sLe^x to P-selectin | inhibit the binding of sLe^x to L-selectin | inhibitory effects |  |
